Laboratory results taken from patent US6579855B1, “Adenovirus-mediated gene therapy” (priority 1998, dated 2003).

Assay: Clinical safety of gene transfer and GCV treatment (adverse effects, routine laboratory measurements)
Type: in vivo, human
Conditions: GCV 5 mg/kg/d intravenously, 14 days; only one patient, without symptoms
Experimental: All patients underwent craniotomy and tumour resection. The resection was as radical as possible under the microscope. The diagnosis of malignant glioma was confirmed by frozen sections at the time of the operation. After tumour resection, HSVtk retrovirus packaging cells (10^9 cells/10 ml) or adenoviruses (3×10^10 pfu/10 ml) were injected into the wall of the tumour cavity in 0.1-0.3 ml quantities, 10 mm deep, with 30-70 injections/patient. GCV treatment (5 mg/kg/d) was delivered intravenously through the subclavian vein twice a day for 14 days. The medication started 14 days or 5 days after the tumour resection and gene transfer in retrovirus or adenovirus patients, respectively. β-galactosidase gene was transferred to seven control group patients via a catheter which was stereotactically inserted into the tumour. The catheter was left in place until the tumour was resected in craniotomy. […]
Blood and urine samples were analyzed using routine methods before gene transfer, on the first postoperative day and weekly during hospitalization except for leucocyte differential count which was measured every second day during GCV medication. Anti-virus antibodies were measured before and two weeks after the gene transfer. […]

Nc1nc(O)c2ncn(COC(CO)CO)c2n1 [GCV, ganciclovir]
leukopenia during GCV treatment: mild and reversible leukopenia
